Data from BindingDB's records for doi:10.1016/s0968-0896(01)00282-6 (Purdue University, 2002).

The molecules below were run against T1, Gag-Pol polyprotein [588-1027]/[588-1147] (Human immunodeficiency virus 1, UniProt P04585) (assay: HIV-1 RT Assay). Details: pH 7.9.
T1 construct: 588-1027; 588-1147
`COC(=O)CCC/C=C/c1cc(C)c(OC)c(C(=O)OC)c1` [methyl 2-methoxy-5-[(1E)-6-methoxy-6-oxohex-1-en-1-yl]-3-methylbenzoate] was tested, and the IC50 was 100 µM.
For `COC(=O)CCCCC(=O)c1cc(C)c(OC)c(C(=O)OC)c1` [Methyl 6-[4-methoxy-5-(methoxycarbonyl)-3-methylphenyl]-6-oxohexanoate], the IC50 was 100 µM.
For `COC(=O)CCC/C=C\c1cc(C)c(OC)c(C(=O)OC)c1` [Alkenyldiarylmethane (ADAM) 10b], the IC50 was 88.2 µM.
In the case of `COC(=O)CCC/C(=C\c1ccc(OC)c(Cl)c1)c1ccc(OC)c(Cl)c1` [methyl (5E)-5,6-bis(3-chloro-4-methoxyphenyl)hex-5-enoate], the IC50 is reported as 100 µM.
Molecule `COC(=O)CCCC=C(c1ccc(OC)c(C(=O)OC)c1)c1ccc(OC)c(C(=O)OC)c1` [methyl 2-methoxy-5-{6-methoxy-1-[4-methoxy-3-(methoxycarbonyl)phenyl]-6-oxohex-1-en-1-yl}benzoate] has an IC50 of 0.504 µM.
In the case of `COC(=O)CCCCCc1cc(C)c(OC)c(C(=O)OC)c1` [Methyl 6-[4-methoxy-5-(methoxycarbonyl)-3-methylphenyl]hexanoate], the IC50 is reported as 1.75 µM.
For `COC(=O)CCCC#Cc1cc(C)c(OC)c(C(=O)OC)c1` [methyl 2-methoxy-5-(6-methoxy-6-oxohex-1-yn-1-yl)-3-methylbenzoate], the IC50 was 100 µM.
In the case of `COC(=O)CCC/C=C(/c1ccc(OC)c(OC)c1)c1cnccn1` [methyl (5Z)-6-(3,4-dimethoxyphenyl)-6-(pyrazin-2-yl)hex-5-enoate], the IC50 is reported as 100 µM.
In the case of `COC(=O)CCC/C=C(/c1ccc(OC)c(C(=O)OC)c1)c1cc(Cl)c(OC)c(C(=O)OC)c1` [Alkenyldiarylmethane (ADAM) 5b], the IC50 is reported as 0.587 µM.
For `COC(=O)CCCC=C(c1ccc(OC)c(Cl)c1)c1ccc(OC)c(Cl)c1` [Alkenyldiarylmethane (ADAM) 9b], the IC50 was 100 µM.
In the case of `COC(=O)CCC/C=C(/c1ccc(OC)c(OC)c1)c1cc(C)c(OC)c(C(=O)OC)c1` [Methyl (5Z)-6-(3,4-dimethoxyphenyl)-6-[4-methoxy-3-(methoxycarbonyl)-5-methylphenyl]hex-5-enoate], the IC50 is reported as 0.074 µM.
`COC(=O)CCC/C=C(/c1cc(C)c(OC)c(C(=O)OC)c1)c1cc(Cl)c(OC)c(C(=O)OC)c1` [Alkenyldiarylmethane (ADAM) 4b] showed an IC50 of 0.516 µM.
